Earlier results on two molecules are cited in patent US20080124273A1, “Novel cationic metal complex radiopharmaceuticals” (priority 2004, published 2008).

For data set [1] the following is noted: background statement.
For data set [2] the following is noted: background statement. This is another data set of the same source.

Take `[C-]#[N+]CC(C)(C)OC.[C-]#[N+]CC(C)(C)OC.[C-]#[N+]CC(C)(C)OC.[C-]#[N+]CC(C)(C)OC.[C-]#[N+]CC(C)(C)OC.[C-]#[N+]CC(C)(C)OC.[Tc]` [^99mTc-Sestamibi]: in data set [1], the first-pass extraction result is “low”; the “uptake in liver and lungs” value is reported as “high”.
`CCOCCC[P]1(CCCOCC)CCN(CCOCC)CC[P](CCCOCC)(CCCOCC)[99Tc+]12(#[N])[S]C(N(CCOCC)CCOCC)=[S]2` [^99mTcN-DBODC6, [^99mTc(N)(N(CH2CH2OEt)2(PNP6)]^+]: the lipophilicity result in data set [2] is reported as “high”. Also, in data set [1], the T/B ratios result is listed as “poor” and the heart uptake result is on record as “very low”.
